Measured values reported in US12441736B2, “KIF18A inhibitors” (AMGEN INC., priority 2018, dated 2025).

Molecular target: T1, Recombinant human KIF18A (1-467 His-tagged) protein (Homo sapiens, UniProt Q8NI77)
T1 construct: Recombinant human KIF18A (1-467 His-tagged) protein; His; made in house
Experiment: KIF18A Enzyme Assay: microtubule-stimulated ATPase activity (ADP-Glo)
Type: biochemical
Settings: 30 nM KIF18A, 30 μg/mL pig microtubules, 75 μM ATP, ADP-Glo luminescence
Procedure, shortened: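 His-tagged human KIF18A (1-467, baculovirus), 30 nM, pre-incubated 15 min with compound in Tris pH 7.5 containing 30 μg/mL taxol-stabilised pig microtubules. ATP was then added at Km (75 μM) for 15 min at room temperature. ADP was measured by ADP-Glo luminescence, and IC50 was fitted by 4-parameter logistic over 22 points.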

T1 sequence (Q8NI77 1-467): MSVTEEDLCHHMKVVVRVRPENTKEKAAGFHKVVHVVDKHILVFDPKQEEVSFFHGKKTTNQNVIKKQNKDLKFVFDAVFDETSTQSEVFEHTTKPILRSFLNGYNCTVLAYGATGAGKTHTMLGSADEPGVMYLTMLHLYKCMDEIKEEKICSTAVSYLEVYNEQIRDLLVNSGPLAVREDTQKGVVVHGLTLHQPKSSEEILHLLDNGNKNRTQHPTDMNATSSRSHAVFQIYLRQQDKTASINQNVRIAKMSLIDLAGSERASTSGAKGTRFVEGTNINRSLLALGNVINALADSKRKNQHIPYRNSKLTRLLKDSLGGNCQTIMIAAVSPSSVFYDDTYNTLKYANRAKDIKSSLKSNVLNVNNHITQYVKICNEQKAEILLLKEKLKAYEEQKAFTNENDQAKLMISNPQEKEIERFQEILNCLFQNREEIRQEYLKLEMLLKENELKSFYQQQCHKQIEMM
T1 sequence (P02550 whole entry partner): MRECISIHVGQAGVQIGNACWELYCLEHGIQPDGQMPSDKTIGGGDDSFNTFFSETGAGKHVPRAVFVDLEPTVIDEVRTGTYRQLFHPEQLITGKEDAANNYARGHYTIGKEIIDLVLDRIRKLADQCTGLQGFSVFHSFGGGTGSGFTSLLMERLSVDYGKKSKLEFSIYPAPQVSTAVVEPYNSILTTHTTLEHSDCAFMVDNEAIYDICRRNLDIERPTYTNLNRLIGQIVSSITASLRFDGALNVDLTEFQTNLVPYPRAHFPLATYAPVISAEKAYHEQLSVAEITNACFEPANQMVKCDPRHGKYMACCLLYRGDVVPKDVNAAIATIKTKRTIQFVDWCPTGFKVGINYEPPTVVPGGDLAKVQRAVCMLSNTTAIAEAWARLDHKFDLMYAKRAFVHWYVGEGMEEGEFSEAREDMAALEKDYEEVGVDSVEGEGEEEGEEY
T1 sequence (P02554 whole entry partner): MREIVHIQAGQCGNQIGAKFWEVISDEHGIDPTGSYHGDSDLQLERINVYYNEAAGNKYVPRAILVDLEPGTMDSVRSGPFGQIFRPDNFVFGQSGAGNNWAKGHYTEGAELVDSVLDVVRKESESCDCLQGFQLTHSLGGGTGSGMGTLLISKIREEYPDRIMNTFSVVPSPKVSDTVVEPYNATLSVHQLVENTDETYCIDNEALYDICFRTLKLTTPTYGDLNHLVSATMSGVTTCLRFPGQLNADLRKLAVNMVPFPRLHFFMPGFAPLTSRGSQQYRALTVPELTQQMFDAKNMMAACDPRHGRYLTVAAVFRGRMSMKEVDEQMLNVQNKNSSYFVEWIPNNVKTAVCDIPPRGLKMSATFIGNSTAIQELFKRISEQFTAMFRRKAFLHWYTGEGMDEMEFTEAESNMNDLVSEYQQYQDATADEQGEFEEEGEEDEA

Row | IC50 | SMILES
1 | 88 nM | C[C@@H]1CN(c2cccc(NC(=O)c3ccc(NC(CO)(CO)CO)nc3N3CCC4(CC3)CC4)n2)CCO1 [Example 222, 2-(6-azaspiro[2.5]octan-6-yl)-6-((1,3-dihydroxy-2-(hydroxymethyl)-2-propanyl)amino)-N-(6-((2R)-2-methyl-4-morpholinyl)-2-pyridinyl)-3-pyridinecarboxamide]
2 | 79.4 nM | CNS(=O)(=O)c1ccc(C(=O)Nc2cccc(N3CCO[C@H](C)C3)n2)c(N2CCC3(CC2)CC3)n1 [Example 223, (R)-N-(6-(2-methylmorpholino)pyridin-2-yl)-6-(N-methylsulfamoyl)-2-(6-azaspiro[2.5]octan-6-yl)nicotinamide]
3 | 68.8 nM | C[C@@H]1CN(c2cccc(NC(=O)c3ccc(S(N)(=O)=O)nc3N3CCC4(CC3)CC4)n2)CCO1 [Example 224, 2-(6-azaspiro[2.5]octan-6-yl)-N-(6-((2R)-2-methyl-4-morpholinyl)-2-pyridinyl)-6-sulfamoyl-3-pyridinecarboxamide]
4 | 102 nM | C[C@@H]1CN(c2cccc(NC(=O)c3ccc(S(=O)(=O)NC(C)(C)C)nc3N3CCC4(CC3)CC4)n2)CCO1 [Example 225, 2-(6-azaspiro[2.5]octan-6-yl)-N-(6-((2R)-2-methyl-4-morpholinyl)-2-pyridinyl)-6-((2-methyl-2-propanyl)sulfamoyl)-3-pyridinecarboxamide]
5 | 392 nM | CC(C)(CO)Nc1ccc(C(=O)Nc2cccc(NCCO)n2)c(N2CCC3(CC2)CC3)n1 [Example 226, 2-(6-azaspiro[2.5]octan-6-yl)-N-(6-((2-hydroxyethyl)amino)-2-pyridinyl)-6-((1-hydroxy-2-methyl-2-propanyl)amino)-3-pyridinecarboxamide]
6 | 142 nM | Cc1cc(NC(=O)c2ccc(NC(C)(C)CO)nc2N2CCC3(CC2)CC3)nc(N2CCC[C@@H](O)C2)c1 [Example 227, 2-(6-azaspiro[2.5]octan-6-yl)-6-((1-hydroxy-2-methyl-2-propanyl)amino)-N-(6-((3R)-3-hydroxy-1-piperidinyl)-4-methyl-2-pyridinyl)-3-pyridinecarboxamide]
7 | 69.7 nM | CC(C)(CO)Nc1ccc(C(=O)Nc2cccc(N3CCC[C@H](O)C3)n2)c(N2CCC3(CC2)CC3)n1 [Example 228, 2-(6-azaspiro[2.5]octan-6-yl)-6-((1-hydroxy-2-methyl-2-propanyl)amino)-N-(6-((3S)-3-hydroxy-1-piperidinyl)-2-pyridinyl)-3-pyridinecarboxamide]
8 | 136 nM | CC1(O)CCCN(c2cccc(NC(=O)c3ccc(NC(C)(C)CO)nc3N3CCC4(CC3)CC4)n2)C1 (stereo not drawn) [Example 229, 6-((1-hydroxy-2-methylpropan-2-yl)amino)-N-(6-(3-hydroxy-3-methylpiperidin-l-yl)pyridin-2-yl)-2-(6-azaspiro[2.5]octan-6-yl)nicotinamide]
9 | 114 nM | CC(C)(CO)Nc1ccc(C(=O)Nc2cccc(N3CCCC(O)(CO)C3)n2)c(N2CCC3(CC2)CC3)n1 (stereo not drawn) [Example 230, 6-((1-hydroxy-2-methylpropan-2-yl)amino)-N-(6-(3-hydroxy-3-(hydroxymethyl)piperidin-1-yl)pyridin-2-yl)-2-(6-azaspiro[2.5]octan-6-yl)nicotinamide]
10 | 134 nM | CC(C)(CO)Nc1ccc(C(=O)Nc2cccc(N3CCCC3(C)CO)n2)c(N2CCC3(CC2)CC3)n1 (stereo not drawn) [Example 231, 6-((1-hydroxy-2-methylpropan-2-yl)amino)-N-(6-(2-(hydroxymethyl)-2-methylpyrrolidin-1-yl)pyridin-2-yl)-2-(6-azaspiro[2.5]octan-6-yl)nicotinamide]
11 | 948 nM | CN(C(=O)OC(C)(C)C)C1CCCN(c2cccc(NC(=O)c3ccc(NC(C)(C)CO)nc3N3CCC4(CC3)CC4)n2)C1 (stereo not drawn) [Example 232, tert-butyl (1-(6-(6-((1-hydroxy-2-methylpropan-2-yl)amino)-2-(6-azaspiro[2.5]octan-6-yl)nicotinamido)pyridin-2-yl)piperidin-3-yl)(methyl)carbamate]
12 | 999 nM | CNC1CCCN(c2cccc(NC(=O)c3ccc(NC(C)(C)CO)nc3N3CCC4(CC3)CC4)n2)C1 (stereo not drawn) [Example 233, 6-((1-hydroxy-2-methylpropan-2-yl)amino)-N-(6-(3-(methylamino)piperidin-1-yl)pyridin-2-yl)-2-(6-azaspiro[2.5]octan-6-yl)nicotinamide]
13 | 1520 nM | CC(C)(CO)Nc1ccc(C(=O)Nc2cccc(N3CCCC(NC(=O)OC(C)(C)C)C3)n2)c(N2CCC3(CC2)CC3)n1 (stereo not drawn) [Example 234, tert-butyl (1-(6-(6-((1-hydroxy-2-methylpropan-2-yl)amino)-2-(6-azaspiro[2.5]octan-6-yl)nicotinamido)pyridin-2-yl)piperidin-3-yl)carbamate]
14 | 357 nM | CC(C)(CO)Nc1ccc(C(=O)Nc2cccc(N3CCOC(CN)C3)n2)c(N2CCC3(CC2)CC3)n1 (stereo not drawn) [Example 235, N-(6-(2-(aminomethyl)morpholino)pyridin-2-yl)-6-((1-hydroxy-2-methylpropan-2-yl)amino)-2-(6-azaspiro[2.5]octan-6-yl)nicotinamide]
15 | 388 nM | CC(C)(CO)Nc1ccc(C(=O)Nc2cccc(N3CCCC(N)C3)n2)c(N2CCC3(CC2)CC3)n1 (stereo not drawn) [Example 236, N-(6-(3-aminopiperidin-1-yl)pyridin-2-yl)-6-((1-hydroxy-2-methylpropan-2-yl)amino)-2-(6-azaspiro[2.5]octan-6-yl)nicotinamide]
16 | 66.7 nM | C[C@@H]1CN(c2cccc(NC(=O)c3cnc(NS(=O)(=O)CCO)cc3N3CCC4(CC3)CC4)n2)CCO1 [Example 237]
17 | 284 nM | C[C@@H]1CN(c2cccc(NC(=O)c3ccc(S(C)(=O)=O)nc3N3CCC4(CC3)CC4)n2)CCO1 [Example 238, (R)-N-(6-(2-methylmorpholino)pyridin-2-yl)-6-(methylsulfonyl)-2-(6-azaspiro[2.5]octan-6-yl)nicotinamide]
18 | 68.1 nM | C[C@@H]1CN(c2cccc(NC(=O)c3ccc(CS(C)(=O)=O)nc3N3CCC4(CC3)CC4)n2)CCO1 [Example 239, 2-(6-azaspiro[2.5]octan-6-yl)-N-(6-((2R)-2-methyl-4-morpholinyl)-2-pyridinyl)-6-((methylsulfonyl)methyl)-3-pyridinecarboxamide]
19 | 107 nM | Cc1cc(NC(=O)c2ccc(CS(C)(=O)=O)nc2N2CCC3(CC2)CC3)nc(N2CCOCC2)c1 [Example 240, 2-(6-azaspiro[2.5]octan-6-yl)-N-(4-methyl-6-(4-morpholinyl)-2-pyridinyl)-6-((methylsulfonyl)methyl)-3-pyridinecarboxamide]
20 | 101 nM | CS(=O)(=O)Cc1ccc(C(=O)Nc2cccc(N3CCC[C@@H](O)C3)n2)c(N2CCC3(CC2)CC3)n1 [Example 241, 2-(6-azaspiro[2.5]octan-6-yl)-N-(6-((3R)-3-hydroxy-1-piperidinyl)-2-pyridinyl)-6-((methylsulfonyl)methyl)-3-pyridinecarboxamide]
21 | 78.1 nM | O=C(Nc1cccc(N2CCC[C@@H](O)C2)n1)c1ccc(C(O)(CO)C(F)(F)F)nc1N1CCC2(CC1)CC2 (stereo partly drawn) [Example 242, N-(6-((R)-3-hydroxypiperidin-l-yl)pyridin-2-yl)-2-(6-azaspiro[2.5]octan-6-yl)-6-(1,1,1-trifluoro-2,3-dihydroxypropan-2-yl)nicotinamide]
22 | 440 nM | C[C@@H]1CN(c2cccc(NC(=O)c3cnc(NC(C)(C)CO)cc3N3CCC4(CC3)CC4)n2)CCO1 [Example 243, (R)-6-((1-hydroxy-2-methylpropan-2-yl)amino)-N-(6-(2-methylmorpholino)pyridin-2-yl)-4-(6-azaspiro[2.5]octan-6-yl)nicotinamide]
23 | 51.2 nM | CC(c1ccc(C(=O)Nc2cccc(N3CCO[C@H](C)C3)n2)c(N2CCC3(CC2)CC3)n1)S(C)(=O)=O (stereo partly drawn) [Example 244, N-(6-((R)-2-methylmorpholino)pyridin-2-yl)-6-(1-(methylsulfonyl)ethyl)-2-(6-azaspiro[2.5]octan-6-yl)nicotinamide]
24 | 860 nM | O=C(Nc1cccnc1N1CCC2(CC1)CC2)c1cccc(N2CCOCC2)n1 [Example 245, N-(2-(6-azaspiro[2.5]oct-6-yl)-3-pyridinyl)-6-(4-morpholinyl)-2-pyridinecarboxamide]
25 | 292 nM | CC(O)(c1ccc(NC(=O)c2cccc(N3CCOCC3)n2)c(N2CCC3(CC2)CC3)n1)C(F)(F)F (stereo not drawn) [Example 246, N-(2-(6-Azaspiro[2.5]octan-6-yl)-6-(1,1,1-trifluoro-2-hydroxypropan-2-yl)pyridin-3-yl)-6-morpholinopicolinamide]
26 | 89.1 nM | C[C@@H]1CN(c2nc(NC(=O)c3ccc(NC(C)(C)CO)nc3N3CCC4(CC3)CC4)ccc2F)CCO1 [Example 247, 2-(6-azaspiro[2.5]octan-6-yl)-N-(5-fluoro-6-((2R)-2-methyl-4-morpholinyl)-2-pyridinyl)-6-((1-hydroxy-2-methyl-2-propanyl)amino)-3-pyridinecarboxamide]
27 | 16 nM | O=C(Nc1ccc(NS(=O)(=O)CCO)cc1N1CCC2(CC1)CC2)c1cccc(N2CCC(F)(F)CC2)n1 [Example 248, 6-(4,4-difluoropiperidin-1-yl)-N-(4-((2-hydroxyethyl)sulfonamido)-2-(6-azaspiro[2.5]octan-6-yl)phenyl)picolinamide]
